Consider one molecule from patent publication US20240083933A1, “DISACCHARIDES FOR TREATING BONE DISEASES” (UNIVERSITE DE PICARDIE JULES VERNE, priority 2020, published 2024).

One series deals with smooth muscle cells. Nature of the series: Calcium production by smooth muscle cells. It is filed as cell-based. To be noted: non-calcifying control condition; DP2 5-50 μM (FIG. 5). From the text: FIG. […]
This therefore reinforces the hypothesis that DP2 will not induce any calcification on cells other than the osteoblastic cells.

Series [1] can be described thus: Acetate migration DP2/DP2′ in solution (stability). To be noted: in methanol. It is filed as physicochemical. The protocol:
The compound DP2′ was extracted from the DP2-DP2′ mixture which is formed when the compound DP2 is dissolved in water. The compound DP2′ has been separated by preparative HPLC chromatography with water as elution solvent.
The inventors have observed that when the compound DP2′ was in water, the delocalization of the acetate group was also present, but with very slow kinetics compared to the DP2→DP2′ reaction. Thus, a solution of DP2′ in water which is left to rest contains, after 44 days, 10 to 15% of DP2. The DP2′ therefore remains alone in the water for a given duration which is quite long. It is therefore possible to test the biological effect of DP2′ in solution in water.
Similarly, the inventors have observed that the kinetics of the DP2→DP2′ reaction is such that it is also possible to test the biological activity of the compound DP2 alone after extraction of the formed compound DP2′. Thus, the two compounds DP2 and DP2′ can coexist or not in water for a given duration.
In methanol, for example, the compound DP2 is therefore alone.
There is about ⅔ of DP2R2 for ⅓ of DP2′. The compound DP2′ comes from a migration of the acetate group (R2) on the 30H position. The compound DP2′ could be isolated and synthesized as previously indicated. […]

A further series deals with MC3T3-E1 cells. Nature of the series: Calcium assay (pro-calcifying activity) on mouse pre-osteoblastic cells. Format: cell-based. To be noted: for increase in calcification relative to the mineralizing medium: MC3T3-E1, 25 days. The protocol: FIG. 1 represents the calcium dosage in the MC3T3-E1 culture medium (in […] of protein per well) after 9 days of exposure of these cells to 4 mM of Pi ([…]) (control+Pi) and 4 mM of Pi in the presence of 30 μM of each of the compounds referenced DP2SNA, DP2NA, DP2K and DP2S;
(§1) For all experiments, a mouse pre-osteoblastic cell line (MC3T3-E1, ATCC) and human primary osteoblastic cells (HOb, Promocell) were used. The mouse pre-osteoblastic cells were cultured in 75 cm^2 flasks, containing 15 mL of α-MEM medium (M4526, SIGMA) and 10% fetal calf serum (FCS), containing 1% Penicillin/Streptomycin antibiotics and 1% glutamine. Similarly, human HOb cells were cultured in 75 cm 2 flasks containing 15 mL of proliferation medium (Human Osteoblast Proliferation Medium, PromoCell). The cells are maintained in the oven at 37° C., with 5% CO2 and 90% humidity. The medium was changed every three days.
(§2) MC3T3-E1 cells were seeded in 6-well plates at 63,700 cells/well to be treated in order to extract RNA or for alkaline phosphatase enzymatic activity assay and in 48-well plates for the calcium assay at 5250 cells/well. The HOb cells were seeded at 182,000 cells/well in 6-well plates for the extraction of RNA or for the alkaline phosphatase enzymatic activity assay; at 15,000 cells/well in 48-well plates for the calcium assay; at 10,000 cells/well in 48-well plates for the MTT test or the WST-1 test and at 100,000 cells/well in 6-well plates for the protein extraction or for the fluorescence.
(§3) In order to induce the mineralization, the MC3T3-E1 cells were treated with α-MEM medium containing 5% FCS to which 10 mM of β-glycerophosphate and 50 μg/mL of ascorbic acid are added. The HOb cells were treated with the “Osteoblast mineralization medium” (Promocell). […] After filtration, the cells were treated with the respective media (500 μL per well of the 48-well plate and 2 mL per well of the 6-well plate).
The release of calcium in the culture medium of mouse pre-osteoblastic cells (MC3T3-E1) has been studied.
An increase in calcification was observed, relative to the mineralizing medium (FIG. 2), in the presence of DP2R0 at 15 μM (40±2%), at 30 μM (28±18%) and at 50 μM (40±28%), and DP2NA at 15 μM (15±14%), at 30 μM (33±12%) and at 50 μM (10±19%).

The test system of a further series is HOb cells. Nature of the series: Calcium assay (pro-calcifying activity, mineralization) on human primary osteoblastic cells. It is filed as cell-based. The conditions noted are these: for percentage of mineralization of the HOb cells / increase in calcification relative to the mineralizing condition: 14 days; for percentage of mineralization of the HOb cells: mineralizing conditions; for increase in calcification relative to the mineralizing condition: HOb. The protocol:
as §1, §2, §3
The calcification has also been studied on human osteoblastic cells (Hob, PromoCell, Heidelberg, Germany). They are isolated from femoral trabecular bone tissues.

Values joined by “and” are separate entries in the source; they are usually repeats but may differ in a detail not shown here. Equal entries are not always repeated.

On to `CCCO[C@H]1OC(CO)[C@@H](O[C@@H]2OC(CO)[C@@H](O)C(O)C2NC(C)=O)C(O)C1OC(C)=O` (stereo partly drawn) [DP2, n-propyl, 2-O-acetyl-α-D-Glucopyranoside, 4-O-(2-acetamido-2-deoxy-β-D-glucopyranosyl)], for which the “pro-calcifying action on the smooth muscle cells” value in the series with smooth muscle cells was “no pro-calcifying action”. Moreover, the “delocalization of the acetate group” value in series [1] is on record as “no delocalization of the acetate group has been observed”. Besides, the “production of calcium by the MC3T3-E1 cells (calcium dosage in culture medium)” value with MC3T3-E1 cells (9 days, 4 mM Pi, 30 μM compound, vs control+Pi (FIG. 1)) is “increase the production of calcium”. Besides, the results for the “increase in calcification relative to the mineralizing medium” value in the series on MC3T3-E1 cells (15 μM), with MC3T3-E1 cells (30 μM) and in the series with MC3T3-E1 cells (50 μM) were 40±2%, 28±18% and 40±28%, respectively. Further, the “percentage of mineralization of the HOb cells” value was 181.573±9.155% in the series with HOb cells (30 μM, listed as DP2R0); 137.012±52.452% and 204.472% and 159.03±18.719% with HOb cells (30 μM, listed as DP2R2). Further, the “increase in calcification relative to the mineralizing condition” value was determined as 26±10% in the series on HOb cells (15 μM), 40±15% in the series on HOb cells (30 μM) and 8±17% in the series on HOb cells (50 μM). Also, the “mineralization of the HOb cells relative to the mineralizing medium alone” value in the series on HOb cells (lower concentrations 5, 7.5 and 10 μM (FIG. 4)) is “decrease in mineralization”.
